From patent publication US10214724B2, “Methods for differentiation of human pluripotent stem cells to brain microvascular endothelial cells” (Wisconsin Alumni Research Foundation, priority 2016, dated 2019)

What was measured:
hPSC-derived BMECs [1] = assay: ICAM-1 induction by TNF-α; settings: 10 ng/mL TNF-α for 16 hours; day 10 hPSC-derived BMECs
Method: (D-F) ICAM-1 induction in hPSC-derived BMECs. hPSC-derived BMECs at day 10 were treated with 10 ng/mL of TNF-α for 16 hours. Cells were stained for ICAM-1 (D) before and (E) after TNF-α treatment. (F) Cells were dissociated or dissociated with Accutase™ and ICAM-1 expression quantified by flow cytometry before and after TNF-α treatment. […] Data were collected at least from three independent samples and are represented as mean±SEM. **p<0.01, ***p<0.001.

[2] = test system: IMR90-4 induced pluripotent stem cells; assay: Brachyury expression after CHIR99021 treatment (immunostaining, flow cytometry); assay type: cell-based, human; settings: 6 μM, 24 hr treatment in DeSR1; IMR90-4 iPSCs
Method: Given the roles of canonical Wnt signaling in both mesoderm specification and BBB development, we first treated hPSCs with CHIR99021, a GSK-3β inhibitor and Wnt agonist, to direct hPSCs to mesoderm-derived endothelial progenitors. Prior to treatment, IMR90-4 induced pluripotent stem cells (iPSCs) were seeded on a Matrigel-coated six-well plate at a density of 35×10^3 cells/cm^2 and expanded in an undifferentiated state for three days in mTeSR1™ (FIG. 1A). […] After 24 hours, the medium was removed and cells were transitioned to DeSR2 (DeSR1 plus B27 supplement) for another five days with daily medium changes. At day 0, pluripotency was verified by OCT4, NANOG and TRA-1-60 immunostaining (FIGS. 1B-D). After 24 hr of CHIR99021 treatment, almost 100% of the cells expressed brachyury, assessed by immunostaining (FIG. 1E) and flow cytometry (FIG. 1F), indicating progression to primitive streak. […] At day 4, more than 90% of the cells expressed the intermediate mesoderm marker PAX2 (FIGS. 1G, 1H) and PAX2 expression peaked at day 6 (FIG. 5). […]
Cells were dissociated with Accutase™ and fixed in 1% PFA for 15 min at room temperature, then washed with 0.5% BSA (Bio-Rad) plus 0.1% Triton-X100 three times. […] Data were collected on a FACSCaliber flow cytometer (Beckton Dickinson) and analyzed using FlowJo. […]

[3] = test system: tight junction related genes TJP1, CLDN5 and OCLN and efflux transporters ABCG2, ABCC1, and ABCB1; assay: Quantitative RT-PCR of tight junction and transporter genes with or without RA; assay type: cell-based, human; settings: 10 μM RA day 6 to day 8; qPCR at day 8
Method: Total RNA was extracted with the RNeasy mini kit (QIAGEN) and treated with DNase (QIAGEN). 1 μg total RNA was reverse transcribed into cDNA via Oligo (dT) with Superscript III Reverse Transcriptase (Invitrogen). Real-time quantitative PCR was done in triplicate with iQSYBR Green™ SuperMix (Bio-Rad). GAPDH was used as an endogenous housekeeping control.

hPSC-derived BMECs [4] = assay: TEER of hPSC-derived BMECs on Transwells; assay type: cell-based, human; settings: cells differentiated in the presence of RA; replated day 8, measured at day 10
Method: BMECs were differentiated as shown in FIG. 1A in the presence or absence of RA, as indicated. (A) At day 8 expression of tight junction and transporter genes was assessed by qPCR. (B) Flow cytometry for CD31 expression was performed at days 6 and 8. (C) Pgp expression was quantified by flow cytometry at day 10. At day 6, medium was switched to hESFM containing or lacking RA, as indicated. (D) At day 8, cells were replated onto Matrigel®-coated Transwell® membranes at 10^6 cells/cm^2 in the presence or absence of 10 μM Y27632 (ROCK inhibitor). Y27632 was added to increase attachment (Pipparelli et al., PloS one 2013, 8:e62095) of cells differentiated in the absence of RA and permit confluent monolayer formation. TEER was measured at day 10, two days after replating (D). (E, G) Occludin and (F, G) ZO-1 expression and localization were assessed by flow cytometry and immunostaining at day 10. Red arrows indicate non-uniform occludin or ZO-1. Claudin-5 expression at day 10 was assessed by flow cytometry (H, I). (I) At day 10, expression level of claudin-5 in BMECs differentiated in the presence or absence of RA were assessed by flow cytometry. (J) Localization and expression of claudin-5 of cells differentiated in the absence of RA was determined via immunostaining (white arrows indicate non-positive claudin-5 and red arrows indicate discontinuous claudin-5). […]

hPSC-derived BMECs [5] = assay: Flow cytometry of BMEC marker proteins (claudin-5, Pgp, occludin, ZO-1) with or without RA; assay type: cell-based, human
Description: Data were collected on a FACSCaliber flow cytometer (Beckton Dickinson) and analyzed using FlowJo.

**Q.** With TNF-α as the molecule, how does the ICAM-1 expression (hPSC-derived BMECs [1]) read?
**A.** The ICAM-1 expression was “upregulation”.

**Q.** Which cells expressing brachyury [2] does the source give for `Cc1c[nH]c(-c2cnc(NCCNc3ccc(C#N)cn3)nc2-c2ccc(Cl)cc2Cl)n1` [CHIR99021] here?
**A.** The cells expressing brachyury was about 100%.

**Q.** For `CC1=C(/C=C/C(C)=C/C=C/C(C)=C/C(=O)O)C(C)(C)CCC1` [RA, retinoic acid], which “expression of TJP1, CLDN5, OCLN, ABCG2, ABCC1 and ABCB1 in cells exposed to RA vs. lacking RA” value [3] is on record?
**A.** Its value is 3-20 fold.

**Q.** What about the TEER (hPSC-derived BMECs [4]) of the same molecule?
**A.** The TEER was ~4000 Ω·cm^2.

**Q.** And the “cells expressing claudin-5” value (hPSC-derived BMECs [5]; RA-treated cells, day 10, flow cytometry (around 60% in the absence of RA))?
**A.** Its value is 100%.

**Q.** What about the “cells expressing Pgp” value (hPSC-derived BMECs [5]; differentiated in the presence of RA, day 10, flow cytometry) of the same molecule?
**A.** Its value is about 100%.
